Measurements as given in US20200341014A1, “PD Marker of Hepatocyte Growth Factor (HGF)” (EISAI R&D MANAGEMENT CO., LTD., priority 2016, published 2020).

Assays:
[1] = system: human ApoA4 protein; test: Western blot quantification of human ApoA4 protein in human hepatocyte culture supernatant; assay type: cell-based; details: PF-04217903 100 nmol/L added 1 hour before rh-HGF; FIG. 6
Description: (§1) Human primary culture hepatocytes seeded in a 24-well plate (3.8×10^5 cells/well, Biopredic International, #HEP220-MW24) were cultured for three days in Incubation Medium (product name: Biopredic International, #MIL214), then c-Met inhibitor PF-04217903 (final concentration 100 nmol/L) (Selleck Chemicals, #S1094, lot. 05) or vehicle (DMSO) was added, and after 1 hour, rh-HGF (final concentration 100, 300, or 1000 ng/mL) or (Incubation Medium) for the control group (Control) was added.
Using hepatocyte culture supernatant (the same culture supernatant as that of cells for preparation of mRNA) 24 Hours after addition of rh-HGF, ApoA4 protein was quantified by Western blot method. […] After washing three times with the above wash solution, chemiluminescence solution SuperSignal West Dura Extended Duration Substrate (Thermo Scientific) was added to allow luminescence, and ApoA4 protein was detected with LAS-4000 (FUJIFILM).
With the quantification results of ApoA4 protein, Dunnett's multiple comparison test was carried out between the control and the rh-HGF administration groups.

[2] = system: ApoA4 mRNA; test: Real-time PCR of liver ApoA4 mRNA in mice administered rh-HGF and c-Met inhibitor (Example 2); assay type: in vivo, mouse; details: PF-04217903 50 mg/kg oral 1 hour before rh-HGF; FIG. 2
Description: (§2) To BALB/cAnNCrlCrlj male 6 weeks-old mice (CHARLES RIVER JAPAN), c-Met inhibitor PF-04217903 (50 mg/kg) (Selleck Chemicals #S1094, lot. 05) or vehicle (5% DMSO, 10% Tween80, 6.7 mmol/L aqueous hydrochloric acid solution) was orally administered at a dose of 10 mL/kg, and after 1 hour, rh-HGF (0.5, 1.5, 5.0, or 15 mg/kg) or PBS was intravenously administered. […] After euthanization, hepatic tissue was collected and immersed in RNA later (Ambion, #AM7021). Serum was collected from the blood collected.
From the harvested liver, total RNA was purified with TRIZOL Reagent (Invitrogen, #15596-018), RNeasy Mini Kit (QIAGEN, #74104), and RNase-Free DNase set (QIAGEN, #79254), and RNA concentration was measured by absorbance.
Quantification of ApoA4 mRNA by real-time PCR method was carried out according to Example 1.
(§3) With the results of ApoA4 mRNA quantification, Dunnett's multiple comparison test was carried out between the control and the rh-HGF administration groups.

[3] = system: ApoA4 protein; test: Western blot quantification of serum ApoA4 protein in mice administered rh-HGF and c-Met inhibitor (Example 2); assay type: in vivo, mouse; details: PF-04217903 50 mg/kg oral 1 hour before rh-HGF; FIG. 3
Description: as §2
Using the above serum, ApoA4 protein was quantified by Western blot method. To the serum diluted 200-folds with PBS (−) (Wako), ¼ volume of the electrophoresis buffer solution (313 mM Tris-HCl (pH 6.8), 10% SDS, 30% Glycerol, 0.2 mg/mL Bromo-phenol blue, and 25% 2-Mercaptoethnol) was added (the final dilution of the serum will be 250-folds), and this was subjected to heat treatment at 95° C. for 3 minutes. […] After washing three times with the above wash solution, chemiluminescence solution SuperSignal West Dura Extended Duration Substrate (Thermo Scientific) was added to allow luminescence, and ApoA4 protein was detected with LAS-4000 (FUJIFILM).
For the results of serum ApoA4 protein quantification, Dunnett's multiple comparison test was carried out between the control and the rh-HGF administration groups.

[4] = system: human ApoA4 mRNA; test: Real-time PCR of human ApoA4 mRNA in human primary culture hepatocytes treated with rh-HGF; assay type: cell-based; details: PF-04217903 100 nmol/L added 1 hour before rh-HGF; FIG. 5
Description: as §1
From hepatocytes 24 hours after addition of rh-HGF, total RNA was purified with RNeasy Mini Kit (QIAGEN, #74104) and RNase-Free DNase set (QIAGEN, #79254), and RNA concentration was measured by absorbance. The purified total RNA was reverse transcripted using High-Capacity cDNA Reverse Transcription Kit with RNase Inhibitor (Applied Biosystems, #4374966) to create cDNA. With the cDNA obtained as the template, the amount of ApoA4 mRNA expressed was examined by real-time PCR method. 18S rRNA was used as the internal control for examination. […]
as §3

For `OCCn1cc(-c2cnc3nnn(Cc4ccc5ncccc5c4)c3n2)cn1` [PF-04217903, reference compound], the “Effect on rh-HGF enhancement of extracellular release of human ApoA4 protein” value [1] was “inhibited”, the “Effect on rh-HGF induction of liver ApoA4 mRNA expression” value [2] was “significantly inhibited” and the “Effect on rh-HGF induction of serum ApoA4 protein” value [3] was “inhibited”. For the same molecule, the “Effect on rh-HGF enhancement of human ApoA4 mRNA expression” value [4] was “inhibited”.
